What follows are compounds tested against T1, Glucocorticoid Receptor (GR) (Homo sapiens, UniProt P04150) (assay: GR Florescence Polarization Assay (PolarScreen Glucocorticoid Receptor Competitor Assay, Red)). Settings: Fluorescense polarization binding ranges; competition with fluorescent glucocorticoid, incubated overnight at 4° C.
T1 construct: purchased Invitrogen P2893
T1 sequence (P04150 1-777): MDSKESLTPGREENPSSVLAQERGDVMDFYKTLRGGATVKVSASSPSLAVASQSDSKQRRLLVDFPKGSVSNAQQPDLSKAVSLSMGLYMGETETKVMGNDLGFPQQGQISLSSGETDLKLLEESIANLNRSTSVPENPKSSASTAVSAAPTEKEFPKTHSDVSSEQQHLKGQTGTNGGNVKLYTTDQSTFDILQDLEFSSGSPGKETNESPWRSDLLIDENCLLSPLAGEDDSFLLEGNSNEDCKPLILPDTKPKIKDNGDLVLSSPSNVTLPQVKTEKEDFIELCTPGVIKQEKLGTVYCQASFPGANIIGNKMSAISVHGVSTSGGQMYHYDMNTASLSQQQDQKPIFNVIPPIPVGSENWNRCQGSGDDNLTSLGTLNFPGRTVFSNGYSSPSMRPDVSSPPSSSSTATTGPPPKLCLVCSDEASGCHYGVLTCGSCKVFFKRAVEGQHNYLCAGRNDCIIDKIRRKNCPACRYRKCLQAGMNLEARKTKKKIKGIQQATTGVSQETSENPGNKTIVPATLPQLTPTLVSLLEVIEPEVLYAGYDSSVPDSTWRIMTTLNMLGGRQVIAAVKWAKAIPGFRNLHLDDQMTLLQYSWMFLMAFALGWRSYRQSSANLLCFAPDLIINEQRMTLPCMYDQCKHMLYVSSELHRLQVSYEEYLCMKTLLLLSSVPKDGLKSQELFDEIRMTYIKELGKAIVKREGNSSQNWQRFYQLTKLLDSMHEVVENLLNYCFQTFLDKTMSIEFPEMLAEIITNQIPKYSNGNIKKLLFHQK
In short: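 Competitive fluorescence polarization using fluorescent glucocorticoid tracer and human GR in kit buffer. Compounds serially diluted 1:4 in DMSO, incubated with tracer and GR overnight at 4 °C before polarization read.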

Row | Structure (SMILES) | IC50 [nM]
1 | CCC[C@@]1(O)CC[C@@]2(CC)c3ccc(C(=O)Nc4cccnc4C)cc3C(=O)CC[C@H]2C1 (single isomer, unassigned) [Example 61] | 100 to 1000
2 | CCC[C@]1(O)CC[C@]2(CC)c3ccc(C(=O)Nc4cccnc4C)cc3C(=O)CC[C@@H]2C1 (single isomer, unassigned) [Example 62] | < 100
3 | Cc1ncccc1NC(=O)c1ccc2c(c1)CCC[C@@H]1C[C@](C)(O)CC[C@@]21Cc1ccccc1 (single isomer, unassigned) [Example 90] | < 100
4 | CCC[C@]1(O)CC[C@]2(CC)c3ccc(C(=O)Nc4cccnc4C)cc3OCC[C@@H]2C1 (single isomer, unassigned) [Example 120] | 100 to 1000
5 | CCC[C@@]1(O)CC[C@@]2(CC)c3ccc(C(=O)Nc4cccnc4C)cc3OCC[C@H]2C1 (single isomer, unassigned) [Example 121] | < 100
6 | CC[C@@]12CC[C@](O)(c3ccccc3)C[C@@H]1CCCc1cc(C(=O)Nc3cccnc3C)ccc12 (single isomer, unassigned) [Example 122] | < 100
7 | CC[C@]12CC[C@@](O)(c3ccccc3)C[C@H]1CCCc1cc(C(=O)Nc3cccnc3C)ccc12 (single isomer, unassigned) [Example 123] | 100 to 1000
8 | CC[C@@]12C[C@@H](O)[C@](O)(c3ccccc3)C[C@@H]1CCCc1cc(C(=O)Nc3cccnc3C)ccc12 (single isomer, unassigned) [Example 124] | 1000 to 10000
9 | CC[C@]12C[C@H](O)[C@@](O)(c3ccccc3)C[C@H]1CCCc1cc(C(=O)Nc3cccnc3C)ccc12 (single isomer, unassigned) [Example 125] | < 100
10 | CCC[C@@]1(O)CC[C@@]2(CC)c3ccc(C(=O)Nc4cccnc4C)cc3C=CC[C@H]2C1 (single isomer, unassigned) [Example 129] | 100 to 1000
11 | CCC[C@]1(O)CC[C@]2(CC)c3ccc(C(=O)Nc4cccnc4C)cc3C=CC[C@@H]2C1 (single isomer, unassigned) [Example 130] | < 100
12 | CCC[C@]1(O)CC[C@]2(CC)c3ccc(C(=O)Nc4cccnc4C)cc3COC[C@@H]2C1 (single isomer, unassigned) [Example 137] | 1000 to 10000
13 | CCC[C@@]1(O)CC[C@@]2(CC)c3ccc(C(=O)Nc4cccnc4C)cc3COC[C@H]2C1 (single isomer, unassigned) [Example 138] | < 100
14 | CCC[C@@]1(O)CC[C@@]2(CC)c3ccc(-c4nc5ccccc5[nH]4)cc3CCC[C@H]2C1 (single isomer, unassigned) [Example 147] | 1000 to 10000
15 | CCC[C@]1(O)CC[C@]2(CC)c3ccc(-c4nc5ccccc5[nH]4)cc3CCC[C@@H]2C1 (single isomer, unassigned) [Example 148] | 1000 to 10000
16 | Cc1ncccc1NC(=O)c1ccc2c(c1)CCC[C@H]1CC(C)(O)CC[C@]21Cc1ccccc1 (stereo in doubt) [Example 91, (7aS,9R,11aR)-11a-benzyl-9-hydroxy-9-methyl-6,7,7a,8,9,10,11,11a-octahydro-5H-dibenzo[a,c]cycloheptene-3-carboxylic acid (2-methyl-pyridin-3-yl)-amide] | 100 to 1000
17 | COc1ccc2c(c1)CCCC1=CC(=O)CCC12Cc1ccccc1 (stereo not drawn) [Example 1, 11b-Benzyl-9-methoxy-1,2,5,6,7,11b-hexahydro-dibenzo[a,c]cyclohepten-3-one] | 100 to 1000
18 | O=C1C=C2CCCc3cc(O)ccc3C2(Cc2ccccc2)CC1 (stereo not drawn) [Example 2, 11b-Benzyl-9-hydroxy-1,2,5,6,7,11b-hexahydro-dibenzo[a,c]cyclohepten-3-one] | 100 to 1000
19 | O=C1CC[C@@]2(Cc3ccccc3)c3ccc(O)cc3CCC[C@H]2C1.O=C1CC[C@]2(Cc3ccccc3)c3ccc(O)cc3CCC[C@@H]2C1 [Example 4, (4aS,11bS)-11b-Benzyl-9-hydroxy-1,2,4,4a,5,6,7,11b-octahydro-dibenzo[a,c]cyclohepten-3-one; compound with (4aR,11bR)-11b-benzyl-9-hydroxy-1,2,4,4a,5,6,7,11b-octahydro-dibenzo[a,c]cyclohepten-3-one] | 100 to 1000
20 | O=C1CC[C@@]2(Cc3ccccc3)c3ccc(O)cc3CCC[C@@H]2C1.O=C1CC[C@]2(Cc3ccccc3)c3ccc(O)cc3CCC[C@H]2C1 [Example 5, (4aR,11bS)-11b-benzyl-9-hydroxy-1,2,4,4a,5,6,7,11b-octahydro-dibenzo[a,c]cyclohepten-3-one; compound with (4aS,11bR)-11b-benzyl-9-hydroxy-1,2,4,4a,5,6,7,11b-octahydro-dibenzo[a,c]cyclohepten-3-one] | 100 to 1000
21 | Cc1ncccc1NC(=O)c1ccc2c(c1)CCC[C@@H]1C[C@](C)(O)CC[C@@]21Cc1ccccc1.Cc1ncccc1NC(=O)c1ccc2c(c1)CCC[C@H]1C[C@@](C)(O)CC[C@]21Cc1ccccc1 [Example 9, (7aR,9R,11aS)-11a-Benzyl-9-hydroxy-9-methyl-6,7,7a,8,9,10,11,11a-octahydro-5H-dibenzo[a,c]cycloheptene-3-carboxylic acid (2-methyl-pyridin-3-yl)-amide; compound with (7aS,9S,11aR)-11a-benzyl-9-hydroxy-9-methyl-6,7,7a,8,9,10,11,11a-octahydro-5H-dibenzo[a,c]cycloheptene-3-carboxylic acid (2-methyl-pyridin-3-yl)-amide] | < 100
22 | Cc1ncccc1NC(=O)c1ccc2c(c1)CCC[C@@H]1C[C@@](C)(O)CC[C@@]21Cc1ccccc1.Cc1ncccc1NC(=O)c1ccc2c(c1)CCC[C@H]1C[C@](C)(O)CC[C@]21Cc1ccccc1 [Example 10, (7aR,9S,11aS)-11a-benzyl-9-hydroxy-9-methyl-6,7,7a,8,9,10,11,11a-octahydro-5H-dibenzo[a,c]cycloheptene-3-carboxylic acid (2-methyl-pyridin-3-yl)-amide; compound with (7aS,9R,11aR)-11a-benzyl-9-hydroxy-9-methyl-6,7,7a,8,9,10,11,11a-octahydro-5H-dibenzo[a,c]cycloheptene-3-carboxylic acid (2-methyl-pyridin-3-yl)-amide] | < 100
23 | CC[C@@]1(O)CC[C@@]2(Cc3ccccc3)c3ccc(C(=O)Nc4cccnc4C)cc3CCC[C@H]2C1.CC[C@]1(O)CC[C@]2(Cc3ccccc3)c3ccc(C(=O)Nc4cccnc4C)cc3CCC[C@@H]2C1 [Example 12, (7aS,9R,11aS)-11a-Benzyl-9-ethyl-9-hydroxy-6,7,7a,8,9,10,11,11a-octahydro-5H-dibenzo[a,c]cycloheptene-3-carboxylic acid (2-methyl-pyridin-3-yl)-amide; compound with (7aR,9S,11aR)-11a-benzyl-9-ethyl-9-hydroxy-6,7,7a,8,9,10,11,11a-octahydro-5H-dibenzo[a,c]cycloheptene-3-carboxylic acid (2-methyl-pyridin-3-yl)-amide] | < 100
24 | CC[C@@]1(O)CC[C@]2(Cc3ccccc3)c3ccc(C(=O)Nc4cccnc4C)cc3CCC[C@@H]2C1.CC[C@]1(O)CC[C@@]2(Cc3ccccc3)c3ccc(C(=O)Nc4cccnc4C)cc3CCC[C@H]2C1 [Example 13, (7aS,9S,11aS)-11a-benzyl-9-ethyl-9-hydroxy-6,7,7a,8,9,10,11,11a-octahydro-5H-dibenzo[a,c]cycloheptene-3-carboxylic acid (2-methyl-pyridin-3-yl)-amide; compound with (7aR,9R,11aR)-11a-benzyl-9-ethyl-9-hydroxy-6,7,7a,8,9,10,11,11a-octahydro-5H-dibenzo[a,c]cycloheptene-3-carboxylic acid (2-methyl-pyridin-3-yl)-amide] | 100 to 1000
25 | Cc1ncccc1NC(=O)c1ccc2c(c1)NC(=O)C[C@@H]1C[C@@](O)(C(F)(F)F)CC[C@@]21Cc1ccccc1 [Example 20, (7aS,9R,11aS)-11a-Benzyl-9-hydroxy-N-(2-methylpyridin-3-yl)-6-oxo-9-(trifluoromethyl)-6,7,7a,8,9,10,11,11a-octahydro-5H-dibenzo[b,d]azepine-3-carboxamide] | 100 to 1000
26 | Cc1ncccc1NC(=O)c1ccc2c(c1)NC(=O)C[C@H]1CC(O)(C(F)(F)F)CC[C@@]21Cc1ccccc1 (stereo partly drawn) [Example 21, (7aR,11aS)-11a-Benzyl-9-hydroxy-N-(2-methylpyridin-3-yl)-6-oxo-9-(trifluoromethyl)-6,7,7a,8,9,10,11,11a-octahydro-5H-dibenzo[b,d]azepine-3-carboxamide] | > 10000
27 | Cc1ncccc1NC(=O)c1ccc2c(c1)C(=O)NC[C@H]1CC(O)(C(F)(F)F)CC[C@@]21Cc1ccccc1 (stereo partly drawn) [Example 22, (4aS,11bS)-11b-benzyl-3-hydroxy-N-(2-methylpyridin-3-yl)-7-oxo-3-(trifluoromethyl)-2,3,4,4a,5,6,7,11b-octahydro-1H-dibenzo[c,e]azepine-9-carboxamide] | > 10000
